From US20230085307A1, “PYRIDAZINONE COMPOUND AND HERBICIDE” (NISSAN CHEMICAL CORPORATION, priority 2019, published 2023)

Assays:
redroot pigweed [1] = assay: Test Example 5: herbicidal effect by foliage application, plastic box (Table 20, symbol N); type: in vivo, redroot pigweed (Amaranthus retroflexus); settings: foliage application, 320 g/ha, evaluated three weeks after application
Outline: (§1)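 Plants sown in sterilized diluvial soil and grown 14 days in a greenhouse at 25° C to 30° C, then sprayed on the foliage with the compound's emulsion diluted in water to a predetermined herbicide amount. Injury to weeds and crops scored three weeks after application on a visual rating scale.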

velvetleaf [2] = assay: Test Example 4: herbicidal effect by soil treatment (Table 19, symbol M); type: in vivo, velvetleaf (Abutilon theophrasti); settings: amount of applied herbicide 320 g/ha
Outline: (§2)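 Seeds were sown in sterilized diluvial soil and covered with about 1.5 cm of soil. An emulsion formulation diluted with water to a predetermined herbicide amount was sprayed evenly onto the soil surface. Plants grew in a greenhouse at 25° C. to 30° C., and the effect was scored three weeks after application using criteria from an earlier test.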

lambsquarters [3] = assay: Test Example 5: herbicidal effect by foliage application, plastic box (Table 20, symbol O); type: in vivo, lambsquarters (Chenopodium album); settings: foliage application, 320 g/ha, evaluated three weeks after application
Outline: as §1

barnyard grass [4] = assay: Test Example 5: herbicidal effect by foliage application, plastic box (Table 20, symbol H); type: in vivo, barnyard grass (Echinochloa crus-galli); settings: foliage application, 320 g/ha, evaluated three weeks after application
Outline: as §1

Italian ryegrass [5] = assay: Test Example 4: herbicidal effect by soil treatment (Table 19, symbol K); type: in vivo, Italian ryegrass (Lolium multiflorum); settings: amount of applied herbicide 320 g/ha
Outline: as §2

chickweed [6] = assay: Test Example 5: herbicidal effect by foliage application, plastic box (Table 20, symbol P); type: in vivo, common chickweed (Stellaria media); settings: foliage application, 320 g/ha, evaluated three weeks after application
Outline: as §1

Chinese sprangletop = assay: Test Example 3: herbicidal effect by foliage application, Wagner pot (Table 18, symbol D); type: in vivo, chinese sprangletop (Leptochloa chinensis); settings: amount of applied herbicide 320 g/ha
Outline: (§3)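 Plants were sown in alluvial soil held under 0.1–0.5 cm standing water and grown 14 days in a greenhouse at 25–30 °C. An emulsifiable formulation, water-diluted to the set dose, was then sprayed onto the foliage, and effects were scored three weeks later using previously defined criteria.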

wild oat [7] = assay: Test Example 5: herbicidal effect by foliage application, plastic box (Table 20, symbol I); type: in vivo, wild oat (Avena fatua); settings: foliage application, 320 g/ha, evaluated three weeks after application
Outline: as §1

persian speedwell [8] = assay: Test Example 5: herbicidal effect by foliage application, plastic box (Table 20, symbol R); type: in vivo, Persian speedwell (Veronica persica); settings: foliage application, 320 g/ha, evaluated three weeks after application
Outline: as §1

southern crabgrass [9] = assay: Test Example 4: herbicidal effect by soil treatment (Table 19, symbol F); type: in vivo, southern crabgrass (Digitaria ciliaris); settings: amount of applied herbicide 320 g/ha
Outline: as §2

wild oat [10] = assay: Test Example 4: herbicidal effect by soil treatment (Table 19, symbol I); type: in vivo, wild oat (Avena fatua); settings: amount of applied herbicide 320 g/ha
Outline: as §2

barnyard grass [11] = assay: Test Example 3: herbicidal effect by foliage application, Wagner pot (Table 18, symbol H); type: in vivo, barnyard grass (Echinochloa crus-galli); settings: amount of applied herbicide 320 g/ha
Outline: as §3

Italian ryegrass [12] = assay: Test Example 5: herbicidal effect by foliage application, plastic box (Table 20, symbol K); type: in vivo, Italian ryegrass (Lolium multiflorum); settings: foliage application, 320 g/ha, evaluated three weeks after application
Outline: as §1

windgrass [13] = assay: Test Example 5: herbicidal effect by foliage application, plastic box (Table 20, symbol L); type: in vivo, windgrass (Apera spica-venti); settings: foliage application, 320 g/ha, evaluated three weeks after application
Outline: as §1

persian speedwell [14] = assay: Test Example 4: herbicidal effect by soil treatment (Table 19, symbol R); type: in vivo, Persian speedwell (Veronica persica); settings: amount of applied herbicide 320 g/ha
Outline: as §2

barnyard grass [15] = assay: Test Example 4: herbicidal effect by soil treatment (Table 19, symbol H); type: in vivo, barnyard grass (Echinochloa crus-galli); settings: amount of applied herbicide 320 g/ha
Outline: as §2

velvetleaf [16] = assay: Test Example 5: herbicidal effect by foliage application, plastic box (Table 20, symbol M); type: in vivo, velvetleaf (Abutilon theophrasti); settings: foliage application, 320 g/ha, evaluated three weeks after application
Outline: as §1

green foxtail [17] = assay: Test Example 4: herbicidal effect by soil treatment (Table 19, symbol G); type: in vivo, green foxtail (Setaria viridis); settings: amount of applied herbicide 320 g/ha
Outline: as §2

rice flat sedge = assay: Test Example 3: herbicidal effect by foliage application, Wagner pot (Table 18, symbol E); type: in vivo, rice flat sedge (Cyperus iria); settings: amount of applied herbicide 320 g/ha
Outline: as §3

windgrass [18] = assay: Test Example 4: herbicidal effect by soil treatment (Table 19, symbol L); type: in vivo, windgrass (Apera spica-venti); settings: amount of applied herbicide 320 g/ha
Outline: as §2

blackgrass [19] = assay: Test Example 4: herbicidal effect by soil treatment (Table 19, symbol J); type: in vivo, blackgrass (Alopecurus myosuroides); settings: amount of applied herbicide 320 g/ha
Outline: as §2

green foxtail [20] = assay: Test Example 5: herbicidal effect by foliage application, plastic box (Table 20, symbol G); type: in vivo, green foxtail (Setaria viridis); settings: foliage application, 320 g/ha, evaluated three weeks after application
Outline: as §1

chickweed [21] = assay: Test Example 4: herbicidal effect by soil treatment (Table 19, symbol P); type: in vivo, common chickweed (Stellaria media); settings: amount of applied herbicide 320 g/ha
Outline: as §2

blackgrass [22] = assay: Test Example 5: herbicidal effect by foliage application, plastic box (Table 20, symbol J); type: in vivo, blackgrass (Alopecurus myosuroides); settings: foliage application, 320 g/ha, evaluated three weeks after application
Outline: as §1

redroot pigweed [23] = assay: Test Example 4: herbicidal effect by soil treatment (Table 19, symbol N); type: in vivo, redroot pigweed (Amaranthus retroflexus); settings: amount of applied herbicide 320 g/ha
Outline: as §2

southern crabgrass [24] = assay: Test Example 5: herbicidal effect by foliage application, plastic box (Table 20, symbol F); type: in vivo, southern crabgrass (Digitaria ciliaris); settings: foliage application, 320 g/ha, evaluated three weeks after application
Outline: as §1

lambsquarters [25] = assay: Test Example 4: herbicidal effect by soil treatment (Table 19, symbol O); type: in vivo, lambsquarters (Chenopodium album); settings: amount of applied herbicide 320 g/ha
Outline: as §2

Compound | herbicidal effect on N: redroot pigweed (criteria 0-5) (redroot pigweed [1]) | M: velvetleaf, herbicidal effect rating (velvetleaf [2]) | herbicidal effect on O: lambsquarters (criteria 0-5) (lambsquarters [3]) | herbicidal effect on H: barnyard grass (criteria 0-5) (barnyard grass [4]) | K: Italian ryegrass, herbicidal effect rating (Italian ryegrass [5]) | herbicidal effect on P: chickweed (criteria 0-5) (chickweed [6]) | herbicidal effect on D: Chinese sprangletop (Chinese sprangletop) | herbicidal effect on I: wild oat (criteria 0-5) (wild oat [7]) | herbicidal effect on R: persian speedwell (criteria 0-5) (persian speedwell [8]) | F: southern crabgrass, herbicidal effect rating (southern crabgrass [9]) | I: wild oat, herbicidal effect rating (wild oat [10]) | herbicidal effect on H: barnyard grass (barnyard grass [11]) | herbicidal effect on K: Italian ryegrass (criteria 0-5) (Italian ryegrass [12]) | herbicidal effect on L: windgrass (criteria 0-5) (windgrass [13]) | R: persian speedwell, herbicidal effect rating (persian speedwell [14]) | H: barnyard grass, herbicidal effect rating (barnyard grass [15]) | herbicidal effect on M: velvetleaf (criteria 0-5) (velvetleaf [16]) | G: green foxtail, herbicidal effect rating (green foxtail [17]) | herbicidal effect on E: rice flat sedge (rice flat sedge) | L: windgrass, herbicidal effect rating (windgrass [18]) | other results
Cc1ccc2sc(-c3ccc4c(c3)OCO4)c(-c3c(O)c(C)nn(C)c3=O)c2c1 [2-156] | 3 (Herbicidal rate of 40% or more and less than 70%) | 0 (Herbicidal rate of 5% or less (almost no effect)) | 0 (Herbicidal rate of 5% or less (almost no effect)) | 0 (Herbicidal rate of 5% or less (almost no effect)) | 0 (Herbicidal rate of 5% or less (almost no effect)) | 5 (Herbicidal rate of 90% or more (almost completely withered)) | 0 (Herbicidal rate of 5% or less (almost no effect)) | 0 (Herbicidal rate of 5% or less (almost no effect)) | 5 (Herbicidal rate of 90% or more (almost completely withered)) | 0 (Herbicidal rate of 5% or less (almost no effect)) | 0 (Herbicidal rate of 5% or less (almost no effect)) | 3 (Herbicidal rate of 40% or more and less than 70%) | 1 (Herbicidal rate of 5% or more and less than 20%) | 0 (Herbicidal rate of 5% or less (almost no effect)) | 4 (Herbicidal rate of 70% or more and less than 90%) | 0 (Herbicidal rate of 5% or less (almost no effect)) | 4 (Herbicidal rate of 70% or more and less than 90%) | 0 (Herbicidal rate of 5% or less (almost no effect)) | 4 (Herbicidal rate of 70% or more and less than 90%) | 0 (Herbicidal rate of 5% or less (almost no effect)) | J: blackgrass, herbicidal effect rating (blackgrass [19]): 0 (Herbicidal rate of 5% or less (almost no effect)); herbicidal effect on G: green foxtail (criteria 0-5) (green foxtail [20]): 0 (Herbicidal rate of 5% or less (almost no effect)); P: chickweed, herbicidal effect rating (chickweed [21]): 4 (Herbicidal rate of 70% or more and less than 90%); herbicidal effect on J: blackgrass (criteria 0-5) (blackgrass [22]): 0 (Herbicidal rate of 5% or less (almost no effect)); N: redroot pigweed, herbicidal effect rating (redroot pigweed [23]): 2 (Herbicidal rate of 20% or more and less than 40%); herbicidal effect on F: southern crabgrass (criteria 0-5) (southern crabgrass [24]): 0 (Herbicidal rate of 5% or less (almost no effect)); O: lambsquarters, herbicidal effect rating (lambsquarters [25]): 3 (Herbicidal rate of 40% or more and less than 70%)
C#Cc1ccc2sc(-c3ccccc3OC)c(-c3c(O)c(C)nn(C)c3=O)c2c1 [2-187] | 5 (Herbicidal rate of 90% or more (almost completely withered)) | 2 (Herbicidal rate of 20% or more and less than 40%) | 4 (Herbicidal rate of 70% or more and less than 90%) | 1 (Herbicidal rate of 5% or more and less than 20%) | 4 (Herbicidal rate of 70% or more and less than 90%) | 5 (Herbicidal rate of 90% or more (almost completely withered)) | 0 (Herbicidal rate of 5% or less (almost no effect)) | 0 (Herbicidal rate of 5% or less (almost no effect)) | 5 (Herbicidal rate of 90% or more (almost completely withered)) | 1 (Herbicidal rate of 5% or more and less than 20%) | 0 (Herbicidal rate of 5% or less (almost no effect)) | 4 (Herbicidal rate of 70% or more and less than 90%) | 4 (Herbicidal rate of 70% or more and less than 90%) | 5 (Herbicidal rate of 90% or more (almost completely withered)) | 0 (Herbicidal rate of 5% or less (almost no effect)) | 3 (Herbicidal rate of 40% or more and less than 70%) | 5 (Herbicidal rate of 90% or more (almost completely withered)) | 4 (Herbicidal rate of 70% or more and less than 90%) | 0 (Herbicidal rate of 5% or less (almost no effect)) | 5 (Herbicidal rate of 90% or more (almost completely withered)) | J: blackgrass, herbicidal effect rating (blackgrass [19]): 4 (Herbicidal rate of 70% or more and less than 90%); herbicidal effect on G: green foxtail (criteria 0-5) (green foxtail [20]): 3 (Herbicidal rate of 40% or more and less than 70%); P: chickweed, herbicidal effect rating (chickweed [21]): 3 (Herbicidal rate of 40% or more and less than 70%); herbicidal effect on J: blackgrass (criteria 0-5) (blackgrass [22]): 5 (Herbicidal rate of 90% or more (almost completely withered)); N: redroot pigweed, herbicidal effect rating (redroot pigweed [23]): 4 (Herbicidal rate of 70% or more and less than 90%); herbicidal effect on F: southern crabgrass (criteria 0-5) (southern crabgrass [24]): 4 (Herbicidal rate of 70% or more and less than 90%); O: lambsquarters, herbicidal effect rating (lambsquarters [25]): 4 (Herbicidal rate of 70% or more and less than 90%)
